According to patent US20260356957A1, “METHODS FOR TREATMENT OF NON-SMALL CELL LUNG CANCER (NSCLC)” (Janssen Biotech, Inc., priority 2023, published 2026):
Several values for one entry are separate records, joined by “and”; a condition that tells them apart may be missing. Equal values may be shown once. Entries after “also recorded” stand apart in the source; their conditions may differ.

Columns and labels:
Type in all cases: in vivo, human
[1] = test system: EGFR-mutated locally advanced or metastatic NSCLC; test: MARIPOSA Phase 3, extracranial progression-free survival by BICR; details: CNS-only first progression censored
From the text: The efficacy population included all patients who had undergone randomization. Extracranial progression-free survival was defined as time from randomization to disease progression (detected by extracranial scans) or death. If first progression was detected solely in the CNS, these patients were censored at the time of CNS disease progression. The dashed lines indicate the median extracranial progression-free survival in the two groups; tick marks indicate censoring of data. 95% CI widths have not been adjusted for multiplicity and cannot be used to infer definitive treatment effects. CNS denotes central nervous system. Since MARIPOSA performed serial brain imaging, a sensitivity analysis was conducted censoring CNS-only, first progression events.

[2] = test system: EGFR-mutated locally advanced or metastatic NSCLC; test: MARIPOSA Phase 3, objective response by BICR (RECIST v1.1)
[3] = test system: EGFR-mutated locally advanced or metastatic NSCLC; test: MARIPOSA Phase 3, overall survival; details: for Median overall survival (95% CI): interim analysis
[4] = test system: EGFR-mutant (Ex19del/L858R) advanced NSCLC; test: MARIPOSA Phase 3, PFS in high-risk subgroups
Procedure: Key Eligibility Criteria: locally advanced or metastatic NSCLC, treatment-naïve for advanced disease, documented EGFR Ex19del or L858R, and ECOG PS 0 or 1. […] High-risk subgroups analyzed: liver metastases, brain metastases, TP53 co-mutation, detectable EGFRm ctDNAd at baseline, and without EGFRm ctDNAd clearance at C3D1 (Week 9) (FIG. 16). Detection of ctDNA and co-mutations were analyzed by next-generation sequencing (NGS) of blood at baseline. Detection and clearance of Ex19del and L858R ctDNA in blood were analyzed with ddPCR at baseline and C3D1.

[5] = test system: EGFR-mutated locally advanced or metastatic NSCLC; test: MARIPOSA Phase 3, duration of response by BICR
[6] = test system: EGFR-mutated locally advanced or metastatic NSCLC; test: MARIPOSA Phase 3, progression-free survival by BICR; details: for Median progression-free survival (95% CI): median follow-up 22.0 months
From the text: The primary endpoint of the study is PFS (using RECIST v1.1 guidelines) as assessed by blinded independent central review (BICR).

Ex19del and L858R ctDNA = test: MARIPOSA Phase 3, EGFRm ctDNA in blood by ddPCR; details: patients with matched samples
Procedure: Detection of circulating tumor (ctDNA) and co-mutations were analyzed by next-generation sequencing (NGS) of blood at baseline.
Detectable EGFRm ctDNA at Baseline and On Treatment: Detection and clearance of Ex19del and L858R ctDNA in the blood were analyzed by ddPCR (Ex19del or L858R by Biodesix ddPCR).

[7] = test system: EGFR-mutated NSCLC with brain metastasis; test: MARIPOSA Phase 3, intracranial PFS by BICR in participants with history of brain metastasis
From the text: • 1. […] Intracranial PFS [Time Frame: Up to approximately 42 months]. […] Incidence and Severity of Adverse Events (AEs) [Time Frame: Up to approximately 60 months]. Incidence and severity of treatment emergent adverse events (TEAEs) will be reported. Any adverse event occurring at or after the initial administration of study treatment through the day of last dose plus 30 days, or until the start of subsequent anticancer therapy (if earlier), is considered to be treatment emergent. • 8. Number of Participants with Clinical Laboratory Abnormalities [Time Frame: Up to approximately 60 months]. Number of participants with clinical laboratory abnormalities (serum chemistry, hematology, blood coagulation, and urine samples) will be reported. • 9. Number of Participants with Vital Signs Abnormalities [Time Frame: Up to approximately 60 months]. Number of participants with vital signs abnormalities (temperature, heart rate, respiratory rate, oxygen saturation, blood pressure) will be reported. • 10. Number of Participants with Physical Examination Abnormalities [Time Frame: Up to approximately 60 months]. Number of participants with physical examination abnormalities will be reported. • 11. […] Number of Participants with Anti-Amivantamab Antibodies [Time Frame: Up to approximately 42 months]. […] Change from Baseline in Non-Small Cell Lung Cancer-Symptom Assessment Questionnaire (NCSLC-SAQ) [Time Frame: Baseline Up to approximately 42 months]. The NSCLC-SAQ contains 7 items that assess cough, pain, dyspnea, fatigue, and poor appetite over a 7-day recall period. Each multi-item scale and individual item will be summarized using count and percent by visit. • 15. Change from Baseline in European Organization of Research and Treatment of Cancer Quality of Life Questionnaire Core 30 (EORTC-QLQ-C30) [Time Frame: Baseline Up to approximately 42 months]. EORTC-QLQ-C30 is a core 30-item questionnaire for evaluating the health-related quality of life (HRQOL) of participants participating in cancer clinical studies. • 16.

C=CC(=O)Nc1cc(Nc2nccc(-c3cn(C)c4ccccc34)n2)c(OC)cc1N(C)CCN(C)C [Osimertinib]
Median extracranial progression-free survival (95% CI) [1]: 18.4 months | Best overall response: Not evaluable [2]: 11 (3) no. (%) | Best overall response: Progressive disease [2]: 11 (3) no. (%) | Best overall response: Stable disease [2]: 42 (10) no. (%) | Best overall response: Complete response ([2]; all responders): 15 (4) no. (%) | Best overall response: Partial response ([2]; all responders): 335 (81) no. (%) | Complete Response (CR) ([2]; best overall response): 15 (3.0%) (%) | Not Evaluable (NE) ([2]; best overall response): 11 (2.7%) (%) | Partial Response (PR) ([2]; best overall response): 335 (80.9%) (%) | Progressive Disease (PD) ([2]; best overall response): 11 (2.7%) (%) | Objective response rate, Patients (95% CI), all responders ([2]; measurable disease at baseline): 85 (81-88) % | Objective response, Patients (95% CI) including only confirmed responders ([2]; measurable disease at baseline): 76 (71-80) % | Objective response rate (CR + PR) ([2]; measurable disease at baseline, RECIST v1.1): 350 (84.5%) (%) | Objective response rate, Patients (95% CI), all responders ([2]; measurable disease at baseline, listed as osimertinib): 85% | Censored (OS) ([3]; Full Analysis Set): 312 (72.7%) (%) | Event (OS) ([3]; Full Analysis Set): 117 (27.3%) (%) | OS 6-month event-free rate (95% CI) ([3]; Full Analysis Set): 0.96 (0.93, 0.97) | OS 12-month event-free rate (95% CI) ([3]; Full Analysis Set): 0.88 (0.85, 0.91) | OS 18-month event-free rate (95% CI) ([3]; Full Analysis Set): 0.79 (0.75, 0.83) | OS 30-month event-free rate (95% CI) ([3]; Full Analysis Set): 0.62 (0.52, 0.70) | OS time to event, 25th percentile (95% CI) ([3]; Full Analysis Set): 20.30 (18.00, 23.59) months | OS time to event, 75th percentile (95% CI) ([3]; NE = not estimable): NE (NE, NE) | Overall survival, Patients (95% CI) at 12 months ([3]; efficacy population): 88 (85-91) % | Overall survival, Patients (95% CI) at 18 months ([3]; efficacy population): 79 (75-83) % | Overall survival, Patients (95% CI) at 24 months ([3]; efficacy population): 69 (64-74) % | Median overall survival (95% CI) ([3]; NE = not estimable): NE (NE, NE) | Median overall survival (95% CI) ([3]; NE = not estimable, listed as osimertinib): not reached; also recorded: could not be estimated | Median PFS ([4]; detectable baseline ctDNA, Biodesix ddPCR): 14.8 months | Median PFS ([4]; wild-type TP53 at baseline): 19.9 months | Median PFS ([4]; with TP53 co-mutations at baseline): 12.9 months | Median PFS ([4]; with brain metastases at baseline): 13.0 months | Median PFS ([4]; with cleared ctDNA at C3D1, Biodesix ddPCR): 16.5 months | Median PFS ([4]; with liver metastases at baseline): 11.0 months | Median PFS ([4]; without brain metastases at baseline): 19.9 months | Median PFS ([4]; without cleared ctDNA at C3D1, Biodesix ddPCR): 9.1 months | Median PFS ([4]; without detectable baseline ctDNA, Biodesix ddPCR): 21.9 months | Median PFS ([4]; without liver metastases at baseline): 18.3 months | Response duration, Median (95% CI) among all responders [5]: 14.9 (12.9-17.5) mo | Response duration, Median (95% CI) among confirmed responders [5]: 16.8 (14.8-18.5) mo | Censored (DOR) ([5]; confirmed responders): 151 (48.1%) (%) | DOR time to event, 25th percentile (95% CI) ([5]; confirmed responders): 9.26 (9.13, 10.25) months | Duration of response >=6 months ([5]; confirmed responders): 267 (65.0%) (%) | Duration of response >=12 months ([5]; confirmed responders): 181 (57.6%) (%) | Duration of response >=18 months ([5]; confirmed responders): 86 (27.4%) (%) | Duration of response >=24 months ([5]; confirmed responders): 21 (6.7%) (%) | Event (DOR) ([5]; confirmed responders): 163 (51.9%) (%) | Median duration of response (95% CI) ([5]; confirmed responders): 16.76 (14.75, 18.53) months | DOR time to event, 75th percentile (95% CI) ([5]; confirmed responders, NE = not estimable): NE (NE, NE) | Median duration of response (95% CI) ([5]; confirmed responders, listed as osimertinib): 16.8 months | Confirmed Responders (Confirmed CR + Confirmed PR) ([5]; number of patients, measurable disease at baseline): 314 | PFS 6-month event-free rate (95% CI) [6]: 0.85 (0.83, 0.88) | PFS 18-month event-free rate (95% CI) [6]: 0.48 (0.43, 0.53) | PFS 24-month event-free rate (95% CI) [6]: 0.34 (0.26, 0.39) | PFS 30-month event-free rate (95% CI) [6]: 0.30 (0.24, 0.36) | Censored (PFS) ([6]; Full Analysis Set): 177 (41.3%) (%) | Event (PFS) ([6]; Full Analysis Set): 252 (58.7%) (%) | PFS time to event, 25th percentile (95% CI) ([6]; Full Analysis Set): 9.23 (7.49, 10.94) months | PFS time to event, 75th percentile (95% CI) ([6]; Full Analysis Set): NE (27.50, NE) | Progression-free survival, Patients (95% CI) at 12 months ([6]; efficacy population): 65 (60-69) % | Progression-free survival, Patients (95% CI) at 18 months ([6]; efficacy population): 48 (43-53) % | Progression-free survival, Patients (95% CI) at 24 months ([6]; efficacy population): 34 (28-39) % | Median progression-free survival (95% CI) [6]: 16.59 (14.78, 18.46) months | Median progression-free survival (95% CI) ([6]; listed as osimertinib): 16.6 months and 16.59 months | Detectable EGFRm ctDNA at C3D1 (Week 9) (Ex19del and L858R ctDNA): 15% | Event (intracranial PFS) [7]: 75 (43.6%) (%) | Intracranial PFS 6-month event-free rate (95% CI) [7]: 0.88 (0.82, 0.92) | Intracranial PFS time to event, 75th percentile (95% CI) ([7]; NE = not estimable): NE (NE, NE)
